Experimental data reported in ChEMBL document CHEMBL1201862, “PubChem BioAssay data set” (2004).
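48-hour exposure; five concentrations; linearly interpolated endpoints. Abbreviation: GI50, concentration required for 50% inhibition of growth.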 Calls of active or inactive are those of the source. No stated cut-off is given here; in the data, active = GI50 up to about 1.1 µM and inactive = higher.

What was measured:
Test in all cases: NCI-60 cell line screen, 48 h
[1] = test system: MDA-MB-231
[2] = test system: RPMI-8226
[3] = test system: SK-OV-3
[4] = test system: A549
[5] = test system: HT-29
[6] = test system: LOX IMVI
[7] = test system: RXF 393
[8] = test system: SNB-75
[9] = test system: IGROV-1
[10] = test system: KM12
[11] = test system: OVCAR-8
[12] = test system: MDA-N
[13] = test system: MOLT-4
[14] = test system: A498
[15] = test system: T47D

| Structure (SMILES) | GI50 [1] | GI50 [2] | GI50 [3] | GI50 [4] | GI50 [5] | GI50 [6] | GI50 [7] | GI50 [8] | GI50 [9] | GI50 [10] | GI50 [11] | GI50 [12] | GI50 [13] | GI50 [14] | GI50 [15] |
| --- | --- | --- | --- | --- | --- | --- | --- | --- | --- | --- | --- | --- | --- | --- | --- |
| CC1(C)COC(c2ccc(C(=O)c3ccc(Cl)cc3)cc2)=N1 | > 100 µM (inactive) | > 100 µM (inactive) | > 100 µM (inactive) | 83 µM (inactive) | > 100 µM (inactive) | > 100 µM (inactive) | 79.6 µM (inactive) | > 100 µM (inactive) | > 100 µM (inactive) | > 100 µM (inactive) | 84.9 µM (inactive) | > 100 µM (inactive) | 98.2 µM (inactive) |  |  |
| Cc1cccc2c(=O)c3c(O)cc4c(c3n(C)c12)C=CC(C)(C)O4 | > 100 µM (inactive) | 9.02 µM (inactive) | > 100 µM (inactive) | 77.6 µM (inactive) | 4.63 µM (inactive) | 40.3 µM (inactive) | 5.93 µM (inactive) | 97.5 µM (inactive) | > 100 µM (inactive) | 29 µM (inactive) | > 100 µM (inactive) | 35.6 µM (inactive) | 29.1 µM (inactive) | > 100 µM (inactive) |  |
| COc1cc2c(cc1OCCCCCOc1cc3c(cc1OC)C(=O)N1CCC[C@H]1CN3)N=C[C@@H]1CCCN1C2=O | 2.49 µM (inactive) |  | 30.5 µM (inactive) | 5.46 µM (inactive) | 5.04 µM (inactive) | 1.34 µM (inactive) | 17 µM (inactive) | 15 µM (inactive) | 3.33 µM (inactive) | 2.92 µM (inactive) | 2.58 µM (inactive) |  | 2.4 µM (inactive) |  | 3.5 µM (inactive) |
| COc1cc(OC)c(C/C=C/c2ccccc2)cc1O | 17.9 µM (inactive) | 14.9 µM (inactive) |  | 19.4 µM (inactive) | 17.7 µM (inactive) | 16 µM (inactive) |  | 14.6 µM (inactive) | 16.3 µM (inactive) | 17.7 µM (inactive) | 16.1 µM (inactive) | 18.1 µM (inactive) | 11.8 µM (inactive) | 14.8 µM (inactive) | 10.6 µM (inactive) |
| CC1(C)[C@H]2CC[C@@]13C(=O)N1C(=O)O[C@@H]([C@H]1Cl)C(Cl)(COCc1ccccc1)C(=O)OCCO[C@H]3C2 (stereo not given in full) |  | 28.2 µM (inactive) | > 100 µM (inactive) | 54.3 µM (inactive) | 35.6 µM (inactive) | 74 µM (inactive) |  | > 100 µM (inactive) | > 100 µM (inactive) | 63.7 µM (inactive) | > 100 µM (inactive) | 64.9 µM (inactive) | 21 µM (inactive) | > 100 µM (inactive) | 43.1 µM (inactive) |
| O=C1CSC2(CC(/C=C/c3cccs3)=NN2c2cccc(S(=O)(=O)O)c2)N1c1nc2ccccc2s1 (stereo not given) | > 100 µM (inactive) | 31.1 µM (inactive) |  | > 100 µM (inactive) | > 100 µM (inactive) | 48.4 µM (inactive) | > 100 µM (inactive) | > 100 µM (inactive) | 27.4 µM (inactive) | > 100 µM (inactive) | > 100 µM (inactive) | > 100 µM (inactive) | 35.7 µM (inactive) | 15.6 µM (inactive) | 21 µM (inactive) |
| COc1ccc(OC)c2c1ccc1c(C)c3ccccc3c(C)c12 | 16 µM (inactive) | > 100 µM (inactive) |  |  | 95.1 µM (inactive) | 60.1 µM (inactive) |  | > 100 µM (inactive) | > 100 µM (inactive) |  | > 100 µM (inactive) | 79.1 µM (inactive) | 88.9 µM (inactive) | 61 µM (inactive) | > 100 µM (inactive) |
| CCOC(=O)/C(=C\NC[C@@H](C)O)c1nc2ccccc2[nH]1 |  | 29.1 µM (inactive) | > 100 µM (inactive) | 62.4 µM (inactive) | 71.3 µM (inactive) | 96.8 µM (inactive) | > 100 µM (inactive) | > 100 µM (inactive) | 37.8 µM (inactive) | 57.4 µM (inactive) | 64 µM (inactive) | > 100 µM (inactive) | 0.238 µM (active) | 55 µM (inactive) |  |
| Cc1nnc2c3c(-c4ccccc4)c(-c4ccccc4)oc3nc(N(C)C)n12 | > 100 µM (inactive) | 20.1 µM (inactive) | > 100 µM (inactive) | 37.2 µM (inactive) | 33.2 µM (inactive) | 39.4 µM (inactive) | 73.5 µM (inactive) | 15.5 µM (inactive) | 85.1 µM (inactive) | 26.7 µM (inactive) | 78.9 µM (inactive) |  | 22.9 µM (inactive) | 65.2 µM (inactive) | 83.6 µM (inactive) |
| CN(C)/N=N/c1nc2c(c(=O)n(C)c(=O)n2C)n1CC(O)CO (stereo not given) | > 100 µM (inactive) | > 100 µM (inactive) | > 100 µM (inactive) | > 100 µM (inactive) | > 100 µM (inactive) |  | > 100 µM (inactive) | > 100 µM (inactive) | > 100 µM (inactive) | > 100 µM (inactive) | > 100 µM (inactive) | > 100 µM (inactive) | > 100 µM (inactive) |  | 38.7 µM (inactive) |
